US20080207532A1, “Use of Nordihydroguaiaretic Acid Derivatives in the Treatment of Drug Resistant Cancer, Viral and Microbial Infection” (Johns Hopkins University, priority 2004, published 2008)
Read-outs that look alike come from different tables or passages of the source.

Key:
NCI/ADR-RES cells = experiment: SRB cytotoxicity assay with median-effect / combination index analysis; format: cell-based, human; details: for IC50: Homo sapiens
Procedure: The multidrug resistant cell line, NCI/ADR-RES, was obtained from the DTP Human Tumor Cell Line Screen (Developmental Therapeutics Program, NCI). Both cell lines were maintained in Dulbecco's modified Eagle's medium supplemented with 10% fetal bovine serum and the antibiotics penicillin and streptomycin. […] Stocks of M4N and paclitaxel (Sigma-Aldrich, St. Louis, Mo.) were prepared in dimethyl sulfoxide (DMSO) and added to the cell culture medium so that the final concentration of DMSO was one percent. Aqueous stocks of Dox (Sigma-Aldrich) were prepared and filter sterilized before dilution into growth medium.
NCI/ADR-RES cells were seeded at a density of 2×10^4 cells per well in 24 well plates and 24 h later the growth medium was supplemented with M4N, Dox, paclitaxel or combinations of M4N with Dox or M4N with paclitaxel. MAN was used at concentrations between 1.5 and 48 μM. For the combination of MAN and Dox a constant molar ratio of 2.4:1 (M4N:Dox) was used and for M4N and paclitaxel the ratio was 20:1 (M4N:paclitaxel). Three days after drug addition cytoxicity was assessed with the SRB assay (14) with 540 and 690 nm (reference) absorbance measured with a Power Wave 200 microplate reader (Bio-Tek Instruments, Winooski, Vt.).
The combination index (CD isobologram method of Chou and Talalay (16, 17, 18, 19) which is based on the median effect principle, was used to calculate synergism or antagonism for the combined drug effects. Dose-effect curves for each drug, singly and in combination, in serially-diluted concentrations were plotted using the median-effect equation and plot (18, 20) and the CI equation and plot (19). CI values at different effect and dose levels and isobolograms were generated automatically using the computer software CompuSyn (20). With this method, additive, synergistic or antagonistic effects are indicated by CI values of 1, <1, and >1, respectively. Comparison of the ratio of doses required to reach a given effect level for each single drug and the drugs in combination was used to determine the dose-reduction index (DRI).

MCF-7 = details: MCF-7, drug sensitive human breast cancer cell line; read-out: reported IC50; cited from earlier work
[1] = test system: NCI/ADR-RES multidrug resistant breast cancer xenografts; experiment: combination therapy against NCI/ADR-RES xenografts in nude mice; details: two weeks
Procedure: Nude mice bearing NCI/ADR-RES multidrug resistant breast cancer xenografts were used as a model for combination therapy to further examine synergy between M4N and paclitaxel.
T-cell deficient female nude (nu/nu) mice, 5-6 weeks of age, were purchased from Charles River Laboratories (Wilmington, Mass.) and were housed in a pathogen-free room. All experiments involving the mice were carried out in accordance with the Johns Hopkins University Animal Care and Use Committee guideline. The mice were implanted subcutaneously in both flanks with 1×10^6 NCI/ADR-RES cells suspended in Hank's balanced salt solution (HBSS). […] For intraperitoneal (i.p.) administration, M4N, maltose-M3N and paclitaxel were dissolved in a recently developed reduced cremophor solution containing 20% (v) dehydrated ethanol, 20% (v) Cremophor EL, PEG 300, <11% (v) Tween 80 (22). Daily injections of 0.05 ml were performed for each drug and drug combination.
Tumors were measured in two perpendicular dimensions once every seven days, and the tumor volumes were calculated according to the following formula: […]
where a is the width of the tumor (smaller diameter) and b is the length (larger diameter) (23). The mean tumor volume and standard error were calculated for each treatment group. Relative mean tumor volumes, (V/V0), where V is the mean tumor volume at a particular time and V0 is the mean tumor volume at day 0 (23), were determined and used to assess tumor growth inhibition (T/C value) using the following equation:
T/C(%)=Relative Mean Tumor Volume of treated/Relative Mean Volume of control×100.
The NCI standard for the minimal level for antitumor activity (T/C≦42%) was adopted (25). At the termination of the experiment the tumors were excised and fixed in formaldehyde. Tissue samples were then sent to Paragon Bioservices for histology and immunohistochemistry using antibodies against human P-glycoprotein (Pgp).
Two dosage regimens of M4N and paclitaxel, both with a constant molar ratio of 20:1 (M4N:paclitaxel), were employed as determined by in vitro testing to be synergistic as shown in Table 1. The 8 and 16 μmol m^2 doses of pactitaxel were submaximal based on values from other studies (22) and the M4N doses of 160 and 320 μmol/m^2 were arrived at by decreasing the maximum tolerated dose used in our previous study with MCF-7 breast cancer xenografts (5). An additional NDGA derivative was also tested. Maltose-M3N was developed as a water soluble alternative to M4N, however for consistency it was dissolved in the same reduced cremophor solvent system as M4N and paclitaxel for this study.

MDR-1 gene = details: cited from earlier work
solubility in water = format: physicochemical
C3 tumors = experiment: intratumoral treatment of C3 cell-induced tumors in mice; format: in vivo; details: daily intratumoral injections for 4 days
Procedure: Four C57b1/6 mice were inoculated with 5×10^5 C3 cells subcutaneously between the shoulders. Tumors were allowed to develop for approximately 20 days. The mice then received daily intratumoral injections of 0.1 ml of 0.15 M NaCl, 10 mg, 20 mg or 40 mg of Maltose-M3N dissolved in 0.15 M NaCl. After 4 days of treatment, the mice were euthanized and the tumors were excised, immediately fixed and then stored in 4% formaldehyde in PBS. Tissue samples were then sent to Paragon Bioservices (Baltimore, Md.) for histology and immunohistochemistry using antibodies against Cdc2 and survivin.

[2] = test system: Hep3B, HT29, K562, LNCaP, and MCF7; experiment: MTT cell viability of human tumor cell lines; format: cell-based; details: 72 h, every cell line tested (Hep3B, HT29, K562, LNCaP, MCF7), 3 days
Procedure: Human tumor cell lines were obtained from ATCC (Mannassas, Va.). The human hepatocellular carcinoma cell line, Hep3B, was maintained in Eagle's MEM supplemented with 10% FBS; the human breast cancer cell line, MCF7, was grown in DMEM containing 10% FBS; the human colorectal carcinoma cell line, HT29, was cultured in McCoy's 5a medium with 10% FBS; the human prostate carcinoma cell line, LNCaP, was maintained in RPMI 1640 with 10% FBS and human erythroleukemia cell line, K562, was propagated in Iscove's modified Dulbecco's medium (IMDM) containing 10% FBS. All of the cultures contained the antibiotics penicillin and streptomycin. The C3 cell line was generated by transfection of the EJras-transformed C57B16 (B6) mouse embryo cells with fall length HPV16. C3 cells were grown and maintained in IMDM supplemented with 5% FBS plus penicillin and streptomycin.
For cell culture experiments, Maltose-M3N was dissolved in water to a concentration of 10 mM and then sterilized by filtration. Cells were seeded at approximately 2×10^3 cells per cm^2 in complete media. Twenty-four hours after seeding, the growth media was removed and replaced with media containing the desired concentrations of Maltose-M3N.
Twenty thousand cells were seeded into each well of 24-well plates. […] The solubilized dye was transferred to 96-well plates and read at the wavelength of 540 nm using an ELISA reader.

Hep3B cells = experiment: DAPI staining of nuclei for apoptotic bodies; format: cell-based, human; details: 60 μM, 72 hr
Procedure: FIG. 9. (A) Effect of Maltose-M3N on the proliferation of human tumor cell lines. HT29, LNCaP, Hep3B, K562, and MCF7 were treated with different concentrations of Maltose-M3N for 72 hours. Percent cell viability was measured by MTT assay and expressed as mean±SD of triplicate data points. (B) Untreated Hep3B cells or treated with 60 μM Maltose-M3N for 72 hr were stained with DAPI. Arrows indicate apoptotic bodies.
The growth inhibitory effect of Maltose-M3N was evaluated in five human cancer cell lines, including Hep3B, HT29, K562, LNCaP, and MCF7.

[3] = 72 h, NCI/ADR-RES, three days, combinations at molar ratio 2.4:1 (M4N:Dox) or 20:1 (M4N:paclitaxel), given as M4N + second drug, read-out: Dm, median effect dose (concentration that inhibits cell growth by 50%)
[4] = single agent, NCI/ADR-RES, read-out: IC50
[5] = M4N/Dox combination 2.4:1, NCI/ADR-RES
[6] = M4N/Dox combination, NCI/ADR-RES
[7] = higher regimen: M4N or Mal-M3N 320, Px 16 μmoles/m^2, i.p. daily
[8] = lower regimen: M4N 160, Px 8 μmoles/m^2, i.p. daily
[9] = M4N/paclitaxel combination 20:1, NCI/ADR-RES
[10] = M4N/paclitaxel combination, NCI/ADR-RES

## COc1cccc2c1C(=O)c1c(O)c3c(c(O)c1C2=O)C[C@@](O)(C(=O)CO)C[C@@H]3O[C@H]1C[C@H](N)[C@H](O)[C@H](C)O1 [Dox, doxorubicin]
NCI/ADR-RES cells; Dox alone, NCI/ADR-RES
  concentration necessary to inhibit the growth of 75% of cells (ED75): 30.5 µM
NCI/ADR-RES cells; Dox with concurrent 11.3 μM M4N, NCI/ADR-RES
  concentration necessary to inhibit the growth of 75% of cells (ED75): 4.7 µM
NCI/ADR-RES cells; [3]
  IC50: 3.22 µM
NCI/ADR-RES cells; [4]
  IC50: 3.22 µM
NCI/ADR-RES cells; [5]
  DRI value at ED75: 6.47
  DRI value at ED90: 30.50
  DRI value at ED95: 87.56
NCI/ADR-RES cells; [6]
  decrease of ED75 by concurrent M4N (DRI): 6.47 fold
  reduction of ED95 by concurrent M4N (DRI): 87.6 fold
MCF-7
  IC50: 0.13 µM

## CC(=O)O[C@H]1C(=O)[C@@]2(C)[C@H]([C@H](OC(=O)c3ccccc3)[C@]3(O)C[C@H](OC(=O)[C@H](O)[C@@H](NC(=O)c4ccccc4)c4ccccc4)C(C)=C1C3(C)C)[C@]1(OC(C)=O)CO[C@@H]1C[C@@H]2O [paclitaxel]
[1]; [7]
  Deaths: 0/7
  Relative Mean Tumor Volume: 1.59
  T/C %: 60.7%
[1]; [8]
  Deaths: 0/7
  Mean Body Weight Change: +0.3 g/mouse
  Relative Mean Tumor Volume: 0.90
  T/C %: 34.4%
NCI/ADR-RES cells; [3]
  IC50: 3.26 µM
NCI/ADR-RES cells; [4]
  IC50: 3.26 µM
NCI/ADR-RES cells; [9]
  DRI value at ED75: 54.32
  DRI value at ED90: 150.31
  DRI value at ED95: 300.34
NCI/ADR-RES cells; [10]
  decrease of ED50 by concurrent M4N (DRI): 19.63 fold
  decrease of ED95 by concurrent M4N (DRI): 300.3 fold
MCF-7
  IC50: 0.0064 µM

## COc1cc2c(cc1O)CCN[C@]21CS[C@@H]2c3c(OC(C)=O)c(C)c4c(c3[C@H](COC1=O)N1[C@@H]2[C@H]2c3c(cc(C)c(OC)c3O)C[C@@H]([C@@H]1O)N2C)OCO4 [ET-743]
MDR-1 gene
  MDR-1 gene activation: able to inhibit MDR-1 gene activation

## COc1ccc(C[C@H](C)[C@H](C)Cc2ccc(OC)c(OC3OC(CO)C(OC4OC(CO)C(O)C(O)C4O)C(O)C3O)c2)cc1OC (stereo partly shown) [Maltose-M3N]
Solubility in water
  solubility in aqueous solution: water soluble
C3 tumors
  Cdc2 protein expression in tumors: reduced expression levels
  apoptosis and necrosis by H&E staining: elevated levels of apoptosis and necrosis
  survivin protein expression in tumors: reduced expression levels
[1]; [7]
  Relative Mean Tumor Volume: 1.25
  T/C %: 47.7%
[2]
  IC50: 20 to 40 µM
Hep3B cells
  mode of cell death (DAPI staining): cell death occurred via apoptosis
